Entries after “also recorded” stand apart in the source; their conditions may differ.
Assays:
MIN6 beta cells = test: Glucose-stimulated insulin secretion (GSIS); format: cell-based, mouse; details: 52 as pre-treatment before 2f-LIGRLO-NH2
Experimental: Rat pancreas and mouse MIN6 beta cells were cultured in DMEM (25 mM glucose) supplemented with 15% fetal calf serum, 10 U/mL penicillin, 10 U/mL streptomycin, 2 mM L-glutamine and […] 2-mercaptoethanol. MIN6 beta cells were passaged and harvested using non-enzymatic cell dissociation solution (Sigma-Aldrich). Glucose-stimulated insulin secretion (GSIS) was performed as described next. MIN6 beta cells were seeded at 0.8×106 mL in a 96-well plate and cultured for 48 h. Cells were washed twice with glucose-free Krebs buffer (NaCl 119 mM, KCl 4.74 mM, CaCl2 2.54 mM, MgCl2 1.19 mM, KH2PO4 1.19 mM, NaHCO3 25 mM, HEPES (pH 7.4) 10 mM and 0.05% BSA). Cells were pre-treated with compound 52 for 30 min with Krebs buffer supplemented with 2.5 mM glucose. After incubation, cells were washed twice with glucose-free Krebs buffer. Glucose (2.5 mM and 25 mM) and compounds were added at specified concentration and incubated for 1 h. Supernatants were collected and insulin concentrations were determined by ELISA (Abeam).

Water solubility = format: physicochemical
[1] = test system: TNBS-induced chronic colitis; test: TNBS-induced chronic colitis model; format: in vivo, rat; details: sulfasalazine 100 mg/kg/day p.o.
Experimental: On day 0, rats were weighed, given respective treatments of either sulfasalazine (100 mg/kg in olive oil p.o.), compound 52 (10 mg/kg in olive oil), or vehicle (500 l olive oil p.o.), and fasted for 24 h with water supplied ad libitum. The next day (day 1), rats were weighed, dosed with respective compound, and anesthetized with isofluorane. A polyethylene catheter was inserted intrarectally (8 cm). Control and drug-treated animals received an intracolonic dose of TNBS (80 mg/kg in saline and 250 l, 50% ethanol in water) (Fiorucci at al., 2001). Sham animals received vehicle only, with TNBS replaced by equivolume water. Rats were maintained in an inclined position (40°) for 30 min, then allowed to recover with food and water supplied. Rats were dosed daily with the respective compound, weighed, and scored for general health and disease progression. All rats were sacrificed on day 8 of experimentation unless they were sacrificed earlier. Disease progression and post-mortem colonic histopathology was scored by the following methods. PAR2 and tryptase co-localization were investigated by using immunohistochemistry.
DAI for both acute and chronic models was assessed and scored by an expert blinded to treatments. Scores incorporated mobility, gastrointestinal pathology, discomfort, and generalized sickness behaviour criteria (each scored 0-3). Any animal that reached stage 3 in any criteria was euthanized by CO2 inhalation and recorded as a disease-related mortality. Scores were summed and expressed as total disease score (maximum 12). DAI was measured at endpoint only (10 h) in the acute study and daily in the chronic TNBS study.
Colons were dissected post-mortem and given a macroscopic disease score based on that described previously (Bobin-Dubigeon et al., 2001) with some minor alterations (maximal score 14). The entire colon length was removed between the ileocolic and colorectal junction. Length and maximal distension width were measured. Sections of affected colon were taken for biochemical analysis, histology, and wet/dry weight.

## CC[C@H](C)[C@@H](NC(=O)[C@H](CC1CCCCC1)NC(=O)c1ccno1)C(=O)N1CCC2(C=Cc3ccccc32)CC1 [Compound 52]
MIN6 beta cells
  glucose-stimulated insulin secretion: normalised insulin secretion
Water solubility
  water solubility: not water soluble enough to administer i.v.
[1]; 52 10 mg/kg/day p.o.
  chronic colitis: mortality and pathology (colon obstruction, ulceration, wall thickness, myeloperoxidase release): ameliorated; also recorded: more effectively than the clinically used drug sulfasalazine
[1]; 52 10 mg/kg/day
  TNBS-mediated mortality: 8.3%
[1]; from day 2 onward, 52 10 mg/kg/day
  DAI compared with TNBS-controls: marked improvements in DAI; also recorded: almost complete recovery

Source: patent US9868763B2, “Modulators of protease activated receptors” (The University of Queensland, priority 2011, dated 2018)
